Measurements from patent US3951955A, “Penicillins substituted with heterocyclic groups” (Sumitomo Chemical Company, Limited, priority 1970, dated 1976).
Values after ≈ are worked out from the molar mass of the structure shown. Structures can show the parent of a compound that is named as a salt.

What was measured:
Assay in all cases: minimal inhibitory concentration, agar dilution method (in vitro)
Format in all cases: cell-based
[1] = tested on: Pseudomonas aeruginosa 104
Excerpt: (§1) When determined according to the agar dilution method, the penicillins [I] afford the minimal inhibitory concentrations as shown in the following Table 1: […]

Escherichia coli NIHJ = tested on: Escherichia coli NIHJ
Excerpt: as §1

[2] = tested on: Staphylococcus aureus 209P
Excerpt: as §1

Proteus miravilis 2425 = tested on: Proteus miravilis 2425
Excerpt: as §1

[3] = tested on: Klebsiella pneumoniae 602
Excerpt: as §1

MIC [1] [µg/mL]	MIC (Escherichia coli NIHJ) [µg/mL]	MIC [2] [µg/mL]	MIC (Proteus miravilis 2425) [µg/mL]	MIC [3] [µg/mL]	SMILES
6.25 (≈ 11.4 µM)	6.25 (≈ 11.4 µM)	0.39 (≈ 0.708 µM)	1.56 (≈ 2.83 µM)	0.78 (≈ 1.42 µM)	COc1ccc2c(O)c(C(=O)NC(C(=O)N[C@@H]3C(=O)N4[C@@H]3SC(C)(C)[C@@H]4C(=O)O)c3ccccc3)cnc2c1 (stereo partly drawn) [Example 18]
6.25 (≈ 12 µM)	12.5 (≈ 24 µM)	0.78 (≈ 1.5 µM)	12.5 (≈ 24 µM)	6.25 (≈ 12 µM)	CC1(C)SC2C(NC(=O)C(NC(=O)c3cnc4ccncc4c3O)c3ccccc3)C(=O)N2C1C(=O)O (stereo not drawn) [Example 43]
6.25 (≈ 12 µM)	6.25 (≈ 12 µM)	0.2 (≈ 0.384 µM)	3.13 (≈ 6.01 µM)	1.56 (≈ 3 µM)	CC1(C)S[C@@H]2[C@H](NC(=O)[C@H](NC(=O)c3cnc4ccccc4c3O)c3ccccc3)C(=O)N2[C@H]1C(=O)O [Example 3, D-(-)-α-(4-hydroxyquinoline-3-carbonamido)-benzylpenicillin]
3.13 (≈ 5.82 µM)	3.13 (≈ 5.82 µM)	0.78 (≈ 1.45 µM)	3.13 (≈ 5.82 µM)	1.56 (≈ 2.9 µM)	CC1(C)SC2C(NC(=O)C(NC(=O)c3cnc4cnc(N)nc4c3O)c3ccccc3)C(=O)N2C1C(=O)O (stereo not drawn) [Example 59]
3.13 (≈ 5.64 µM)	3.13 (≈ 5.64 µM)	0.2 (≈ 0.36 µM)	1.56 (≈ 2.81 µM)	0.39 (≈ 0.703 µM)	CC1(C)S[C@@H]2[C@H](NC(=O)C(NC(=O)c3cnc4cc(Cl)ccc4c3O)c3ccccc3)C(=O)N2[C@H]1C(=O)O (stereo partly drawn) [Example 15]
3.13 (≈ 5.84 µM)	3.13 (≈ 5.84 µM)	1.56 (≈ 2.91 µM)	3.13 (≈ 5.84 µM)	6.25 (≈ 11.7 µM)	Cc1ccnc2c(O)c(C(=O)NC(C(=O)NC3C(=O)N4C3SC(C)(C)C4C(=O)O)c3ccccc3)cnc12 (stereo not drawn) [Example 34]
3.13 (≈ 5.82 µM)	1.56 (≈ 2.9 µM)	1.56 (≈ 2.9 µM)	3.13 (≈ 5.82 µM)	3.13 (≈ 5.82 µM)	CC1(C)S[C@@H]2[C@H](NC(=O)C(NC(=O)c3cnc4ccc(O)nc4c3O)c3ccccc3)C(=O)N2[C@H]1C(=O)O (stereo partly drawn) [Example 29]
3.13 (≈ 6 µM)	1.56 (≈ 2.99 µM)	0.78 (≈ 1.5 µM)	3.13 (≈ 6 µM)	6.25 (≈ 12 µM)	CC1(C)S[C@@H]2[C@H](NC(=O)C(NC(=O)c3cnc4cccnc4c3O)c3ccccc3)C(=O)N2[C@H]1C(=O)O (stereo partly drawn) [Example 27]
3.13 (≈ 5.67 µM)	1.56 (≈ 2.83 µM)	0.78 (≈ 1.41 µM)	1.56 (≈ 2.83 µM)	3.13 (≈ 5.67 µM)	COc1ccc2ncc(C(=O)NC(C(=O)N[C@@H]3C(=O)N4[C@@H]3SC(C)(C)[C@@H]4C(=O)O)c3ccccc3)c(O)c2n1 (stereo partly drawn) [Example 28]
12.5 (≈ 22.1 µM)	12.5 (≈ 22.1 µM)	0.39 (≈ 0.69 µM)	6.25 (≈ 11.1 µM)	0.78 (≈ 1.38 µM)	CC1(C)S[C@@H]2[C@H](NC(=O)C(NC(=O)c3cnc4cc([N+](=O)[O-])ccc4c3O)c3ccccc3)C(=O)N2[C@H]1C(=O)O (stereo partly drawn) [Example 21]

More lines, now with the values behind:

SMILES	MIC [1] [µg/mL]	MIC (Escherichia coli NIHJ) [µg/mL]	MIC [2] [µg/mL]	MIC (Proteus miravilis 2425) [µg/mL]	MIC [3] [µg/mL]
CCOC(=O)Oc1c(C(=O)NC(C(=O)N[C@@H]2C(=O)N3[C@@H]2SC(C)(C)[C@@H]3C(=O)O)c2ccccc2)cnc2ccc(NC(=O)OCc3ccccc3)cc12 (stereo partly drawn) [Example 24]	12.5 (≈ 16.9 µM)	12.5 (≈ 16.9 µM)	0.39 (≈ 0.526 µM)	12.5 (≈ 16.9 µM)	1.56 (≈ 2.1 µM)
CN(C)c1ccc2ncc(C(=O)NC(C(=O)NC3C(=O)N4C3SC(C)(C)C4C(=O)O)c3cccs3)c(O)c2n1 (stereo not drawn) [Example 38]	6.25 (≈ 11 µM)	1.56 (≈ 2.73 µM)	0.78 (≈ 1.37 µM)	1.56 (≈ 2.73 µM)	1.56 (≈ 2.73 µM)
COc1c(C(=O)NC(C(=O)N[C@@H]2C(=O)N3[C@@H]2SC(C)(C)[C@@H]3C(=O)O)c2ccccc2)cnc2ccccc12 (stereo partly drawn) [Example 14]	12.5 (≈ 23.4 µM)	25 (≈ 46.8 µM)	0.2 (≈ 0.374 µM)	12.5 (≈ 23.4 µM)	25 (≈ 46.8 µM)
CC1(C)S[C@@H]2[C@H](NC(=O)C(NC(=O)c3cnc4cc(C(F)(F)F)ccc4c3O)c3ccccc3)C(=O)N2[C@H]1C(=O)O (stereo partly drawn) [Example 20]	6.25 (≈ 10.6 µM)	12.5 (≈ 21.2 µM)	0.39 (≈ 0.663 µM)	3.13 (≈ 5.32 µM)	0.39 (≈ 0.663 µM)
CCOc1c(C(=O)NC(C(=O)N[C@@H]2C(=O)N3[C@@H]2SC(C)(C)[C@@H]3C(=O)O)c2ccccc2)cnc2ccccc12 (stereo partly drawn) [Example 13]	50 (≈ 91.1 µM)	12.5 (≈ 22.8 µM)	0.2 (≈ 0.365 µM)	25 (≈ 45.6 µM)	–
CCOC(=O)Oc1c(C(=O)N[C@@H](C(=O)N[C@@H]2C(=O)N3[C@@H]2SC(C)(C)[C@@H]3C(=O)O)c2ccccc2)cnc2ccccc12 [Example 1, D-(-)-α-(4-ethoxycarbonyloxyquinoline-3-carbonamido)-benzylpenicillin]	3.13 (≈ 5.28 µM)	6.25 (≈ 10.5 µM)	0.2 (≈ 0.337 µM)	1.56 (≈ 2.63 µM)	–
Cc1nc2cc3c(cc2c(O)c1C(=O)N[C@@H](C(=O)N[C@@H]1C(=O)N2[C@@H]1SC(C)(C)[C@@H]2C(=O)O)c1ccccc1)OCO3 [Example 7, D-(-)-α-(2-methyl-6,7-methylenedioxy-4-hydroxyquinoline-3-carbonamido)-benzylpenicillin potassium salt]	12.5	12.5	0.2	6.25	–
CC1(C)SC2C(NC(=O)C(NC(=O)c3cnc4cncnc4c3O)c3cccs3)C(=O)N2C1C(=O)O (stereo not drawn) [Example 58]	3.13 (≈ 5.92 µM)	1.56 (≈ 2.95 µM)	0.78 (≈ 1.48 µM)	3.13 (≈ 5.92 µM)	1.56 (≈ 2.95 µM)
